A short description of series [1]: Inhibition of Plasmodium falciparum DHODH expressed in Escherichia coli by DCIP staining-based spectrophotometric analysis.
In series [2] the target is Dihydroorotate dehydrogenase (quinone), mitochondrial (Homo sapiens, UniProt Q02127). Description: Inhibition of human DHODH expressed in Escherichia coli by DCIP staining-based spectrophotometric analysis.
A short description of series [3]: Aqueous solubility of compound. To be noted: buffer. It counts as physicochemical.
A short description of series [4]: Intrinsic clearance in human liver microsomes assessed per mg protein by LC-MS analysis. It is filed as ADME, Microsome. As to conditions: read-out: CLH. On the technique in general: Microsomes from liver hold many membrane-bound enzymes, among them those of drug oxidation.
Series [5] is described as follows: Intrinsic clearance in mouse liver microsomes assessed per mg protein by LC-MS analysis. It is filed as ADME, Microsome. To be noted: read-out: CLH.
In a further series the test system is Trypanosoma brucei. Description: Antitrypanosomal activity against Trypanosoma brucei Lister 427 bloodstream form after 48 hrs by CellTiter-Glo luminescent cell viability assay. It counts as functional, organism-based. To be noted: Lister 427, 48 h. Background: ATP-based viability assays read luminescence as a measure of living cells.
The nature of series [6]: Oral bioavailability in mouse at 20 mg/kg administered as single dose. It is filed as ADME, organism-based. As to conditions: in vivo.
Series [7] has as its target Fatty acid-binding protein, adipocyte (Homo sapiens, UniProt P15090). The series can be described thus: Binding affinity to recombinant FABP4 (unknown origin) expressed in Escherichia coli by sypro orange dye-based TdF assay.
Series [8] can be described thus: Lipophilicity, log D of the compound at pH 7.4 by shake flask method. It counts as physicochemical. To be noted: buffer.
Series [9] is described as follows: Protein binding in human plasma by ultracentrifugation method. It counts as ADME, cell-free.
The test system of a further series is Leishmania donovani. Description: Antileishmanial activity against Leishmania donovani MHOM/SD/62/1S-CL2D axenic amastigote after 48 hrs by CellTiter-Glo luminescent cell viability assay. It is filed as functional, organism-based.
In a further series the test system is Trypanosoma cruzi. Description: Antitrypanosomal activity against Trypanosoma cruzi Tulahuen amastigotes expressing beta-galactosidase infected in mouse NIH3T3 cells after 6 days. It is filed as functional, organism-based. To be noted: NIH3T3, 144 h.
The nature of series [10]: Dissociation constant, pKa of compound. It is filed as physicochemical.
The nature of series [11]: Cytotoxicity against mouse primary peritoneal macrophages. It counts as cell-based, Peritoneal macrophage.
A short description of series [12]: Cytotoxicity against mouse NIH/3T3 cells after 5 days by CellTiter-Glo luminescent cell viability assay. It counts as cell-based, NIH3T3.

The record followed here is ChEMBL document CHEMBL4480398, “1,2,4-Triazolo[1,5-a]pyrimidines in drug design” (Eur J Med Chem, 2019).

Usually IC50 stands for the point on the concentration scale where inhibition reaches its midpoint. Read a high IC50 as a need for much substance. As a reminder, the solubility is the dissolved amount per volume that the medium holds. A higher solubility goes with a readily soluble substance. As usually defined, the EC50 is the concentration giving half of the maximal effect. The low end stands for higher potency in that assay, the high end for lower potency in that assay. A word on the bioavailability: it is the share of a dose that reaches the circulation, judged against a reference dose that is usually intravenous. Lower therefore signals poor availability. In general, Kd refers to the constant that tells how readily two partners part at equilibrium. By logD is commonly meant the decadic logarithm of the distribution of all forms, ionised or not, between an organic phase and buffer at a given pH. The pKa is the pH at which an ionisable group is half protonated. The low end stands for a group that gives up its proton readily, the high end for a group that holds its proton tightly. Usually CC50 stands for the concentration at which the toxic effect on the cells reaches its halfway point. A higher CC50 goes with better tolerance by the cells.

Each structure is given as a SMILES string. Values after ≈ are worked out from the molar mass of the structure shown.

Chain of Fatty acid-binding protein, adipocyte (P15090 whole entry): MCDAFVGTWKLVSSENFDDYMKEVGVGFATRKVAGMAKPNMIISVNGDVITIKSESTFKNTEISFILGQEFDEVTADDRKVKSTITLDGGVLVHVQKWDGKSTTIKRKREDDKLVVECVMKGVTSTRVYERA
Chain of Dihydroorotate dehydrogenase (quinone), mitochondrial (Q02127 whole entry): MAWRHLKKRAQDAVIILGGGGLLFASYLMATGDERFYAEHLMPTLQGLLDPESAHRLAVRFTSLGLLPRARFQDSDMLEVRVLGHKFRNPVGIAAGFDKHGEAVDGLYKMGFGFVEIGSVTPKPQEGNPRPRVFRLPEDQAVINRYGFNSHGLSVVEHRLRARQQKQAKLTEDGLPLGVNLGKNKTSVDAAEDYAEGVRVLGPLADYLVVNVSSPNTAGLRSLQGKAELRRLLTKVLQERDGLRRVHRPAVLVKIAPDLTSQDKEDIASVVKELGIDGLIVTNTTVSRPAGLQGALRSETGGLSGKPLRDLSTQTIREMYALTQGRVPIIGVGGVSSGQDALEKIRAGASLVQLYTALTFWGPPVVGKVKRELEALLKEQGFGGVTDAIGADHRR

Turning to `Cc1cc(Nc2cc(F)c(C(F)(F)F)c(F)c2)n2ncnc2n1`, the IC50 in series [1] is 190 nM; in series [2], greater than 30000 nM. In series [3], this compound showed a solubility of 9 to 18 µM (≈ 2.96 to 5.93 µg/mL). The microsomal CLint in series [4] was less than 5 µL/min/mg; in [5], less than 6 µL/min/mg.

The compound `Cc1nc(C)c(C(=O)Nc2ccc(F)c(-c3nc4ncc(-c5ccccn5)cn4n3)c2)o1` came in with a 50% effective concentration (EC50) in the series on Trypanosoma brucei of 70 nM. The same compound had a bioavailability in series [6] of less than 34%.

For `O=c1cc(CNc2cccc(Cl)c2C2CC2)[nH]c2nc(-c3ccccc3)nn12`, in series [7], the dissociation constant Kd worked out at 20 nM.

For the compound `Cc1cc(Nc2ccc(C(F)(F)F)nc2)n2nc(C(C)(F)F)nc2n1`, the IC50 was 14 nM in series [1] and greater than 100000 nM in series [2]. The logD in [8] is 2.5. In series [3], this compound showed a solubility greater than 100 µM. Further, the fraction unbound in [9] (read-out: PPB) was found to be 0.5. In addition, the microsomal CLint in [5] was 5.1 µL/min/mg.

For `Cc1nc(C)c(C(=O)Nc2ccc(F)c(-c3nc4ncc(-c5ccccc5)cn4n3)c2)o1`, the EC50 with Leishmania donovani worked out at 71 nM; with Trypanosoma brucei, 22 nM; in the series on Trypanosoma cruzi, 16 nM. Also, in series [6], the bioavailability was less than 34%.

Take `Cc1c(Cl)cccc1NCc1cc(=O)n2nc(-c3ccccc3)nc2[nH]1`: in [7], the Kd was 10 nM. In series [10], this compound gave a pKa of 4.6.

In the case of `O=C(Nc1ccc(Cl)c(-c2nc3ncccc3o2)c1)c1ccco1`, the EC50 with Leishmania donovani came to 7300 nM; in the series with Trypanosoma brucei it was 150000 nM; with Trypanosoma cruzi it was 75 nM. Besides, the CC50 in series [11] was greater than 50000 nM.

On to `COc1ccc(Cl)cc1NCc1cc(=O)n2nc(-c3ccccc3)nc2[nH]1`, for which the Kd in [7] is 860 nM.

Turning to `Cc1cc(Nc2ccc(S(F)(F)(F)(F)F)cc2)n2nc(C(C)(F)F)nc2n1` [DSM-265], half-maximal inhibition in series [1] (IC50) required 33 nM. The compound also displayed a solubility in [3] of 70 to 140 µM (≈ 29.1 to 58.1 µg/mL). The PPB in series [9] is on record as 90.4%. In addition, the microsomal CLint in [4] was less than 5 µL/min/mg; in [5], 10.1 µL/min/mg.

`Cc1cc(Nc2ccc3ccccc3c2)n2ncnc2n1` registered an IC50 in series [2] greater than 200000 nM. Moreover, the solubility in series [3] was in the range of 45 to 90 µM (≈ 12.4 to 24.8 µg/mL).

Consider `CC(C)OC(=O)Nc1cnc2nc(-c3cc(NC(=O)c4ccco4)ccc3Cl)nn2c1`, for which the EC50 is 350 nM in the series on Leishmania donovani, 79 nM in the series with Trypanosoma brucei and 55 nM in the series with Trypanosoma cruzi. The compound further gave a CC50 at 120 h in [12] of 9000 nM. This compound showed a CC50 in series [11] of 14000 nM.
